Results on 23 compounds are retold here after patent publication US20140024662A1, “COMPOUNDS, SCREENS, AND METHODS OF TREATMENT” (Shanghai Institute of Organic Chemistry, priority 2006, published 2014).

For this test, the system named is FADD-deficient Jurkat cells. In words: necroptosis assay: FADD-deficient Jurkat cells treated with TNFα, cell viability. The class given is cell-based, human. The settings on record: for activity in the necroptosis assay, in words / Max Prot: FADD-deficient Jurkat cells treated with TNFα; for Max Prot: max viability obtained in the presence of a compound. The text has this:
Herein we describe the structure activity analysis of Nec-5 analogs.

Where [1] appears, read: effective concentration for half-maximum response, inhibition of necroptosis in FADD-deficient Jurkat cells treated with TNFα, read-out: EC50.
[2] abbreviates: effective concentration for half-maximum response, inhibition of necroptosis in FADD-deficient Jurkat cells treated with TNFα.

Read-outs that look alike come from different tables or passages of the source.

As to `COc1ccc(-n2c(SCC#N)nc3sc4c(c3c2=O)CCCC4)cc1` [Compound 1, 3-p-methoxyphenyl-5,6-tetra-methylenothieno-[2,3-d]-pyrimidin-4-one-2-mercaptoethylcyanide], the “activity in the necroptosis assay, in words” value (from here on “activity”) is on record as “prevents the death” and the “Max Prot” value turned out to be 100%. Under “Homo sapiens, Jurkat”, this compound yielded a concentration for a half-maximal effect (EC50) of 0.24 µM.
With `COc1ccc(-n2c(SC)nc3sc4c(c3c2=O)CCCC4)cc1` [Compound 6], the “activity” value was “reserves its activity to a significant extent” and the “Max Prot” value worked out at 71%. Besides, the EC50 under setting [1] was found to be 0.24 µM.
In the case of `CCSc1nc2sc3c(c2c(=O)n1-c1ccc(OC)cc1)CCCC3` [Compound 7], under setting [2], the EC50 entry is “inactive”.
In the case of `CCCSc1nc2sc3c(c2c(=O)n1-c1ccc(OC)cc1)CCCC3` [Compound 8], the EC50 entry under setting [2] was “inactive”.
Regarding `CCCCSc1nc2sc3c(c2c(=O)n1-c1ccc(OC)cc1)CCCC3` [Compound 9], the EC50 entry under setting [2] was “inactive”.
Still for that read-out and setting: under `CCCCCSc1nc2sc3c(c2c(=O)n1-c1ccc(OC)cc1)CCCC3` [Compound 10] stands “inactive”; under `CCCCCCSc1nc2sc3c(c2c(=O)n1-c1ccc(OC)cc1)CCCC3` [Compound 11], “inactive”.
With `C=CCSc1nc2sc3c(c2c(=O)n1-c1ccc(OC)cc1)CCCC3` [Compound 12], the EC50 result under setting [2] is “inactive”.
Regarding `C#CCSc1nc2sc3c(c2c(=O)n1-c1ccc(OC)cc1)CCCC3` [Compound 13], the “activity” value is recorded as “exhibited some activity” and the “Max Prot” value was 80.7%. Also, under setting [1], the EC50 amounted to 6.08 µM.
In the case of `COc1ccc(-n2c(SCc3ccccc3)nc3sc4c(c3c2=O)CCCC4)cc1` [Compound 14], the “activity” value is reported as “completely destroyed the activity”. Under setting [2], the EC50 result is “inactive”.
On to `COc1ccc(-n2c(SCc3ccc(C)cc3)nc3sc4c(c3c2=O)CCCC4)cc1` [Compound 15], for which, under setting [2], the EC50 entry is “inactive”.
The same measure, in the same setting: for `COc1ccc(CSc2nc3sc4c(c3c(=O)n2-c2ccc(OC)cc2)CCCC4)cc1` [Compound 16] the value was “inactive”.
With `COc1ccc(-n2c(SCc3ccc([N+](=O)[O-])cc3)nc3sc4c(c3c2=O)CCCC4)cc1` [Compound 17], the EC50 entry under setting [2] was “inactive”.
Still for that read-out and setting: under `COc1ccc(-n2c(SCC(C)=O)nc3sc4c(c3c2=O)CCCC4)cc1` [Compound 18] stands “inactive”.
For the compound `COC(=O)CSc1nc2sc3c(c2c(=O)n1-c1ccc(OC)cc1)CCCC3` [Compound 19], the “activity” value is “completely destroyed the activity”. Besides, under setting [2], the EC50 entry is “inactive”.
For the compound `COc1ccc(-n2c(SCC(N)=O)nc3sc4c(c3c2=O)CCCC4)cc1` [Compound 20], the EC50 entry under setting [2] was “inactive”.
In the case of `COc1ccc(-n2c(SC(C)=O)nc3sc4c(c3c2=O)CCCC4)cc1` [Compound 21], under setting [2], the EC50 result was “inactive”.
The same measure, in the same setting: for `CCCC(=O)Sc1nc2sc3c(c2c(=O)n1-c1ccc(OC)cc1)CCCC3` [Compound 22] the value was “inactive”.
As for `COc1ccc(-n2c(SC(=O)c3ccccc3)nc3sc4c(c3c2=O)CCCC4)cc1` [Compound 23], the half-maximal effective concentration (EC50) result under setting [2] is “inactive”.
On to `COc1ccc(-n2c(SCCC#N)nc3sc4c(c3c2=O)CCCC4)cc1` [Compound 24], for which the “activity” value is “retained some activity” and the “Max Prot” value is given as 70%. For the same compound, the EC50 under setting [1] was 5.28 µM.
Taken in the same sequence, the figures for `COc1ccc(-n2c(SCCl)nc3sc4c(c3c2=O)CCCC4)cc1` [Compound 25] were “exhibited some activity”, 85% and 2.22 µM.
As for `COc1ccc(-n2c(SC[N+](=O)[O-])nc3sc4c(c3c2=O)CCCC4)cc1` [Compound 26], the “activity” value is “completely destroyed the activity”. Moreover, the EC50 entry under setting [2] is “inactive”.
Turning to `COc1ccc(-n2c(SCC(=O)Nc3ccccc3C(F)(F)F)nc3sc4c(c3c2=O)CCCC4)cc1` [Compound 27], the concentration for a half-maximal effect (EC50) entry under setting [2] was “inactive”.

A word on the EC50: it is the midpoint of the concentration-response curve.
